Source: patent US9957298B2, “Peptides as oxytocin agonists” (Hoffmann-La Roche Inc., priority 2014, dated 2018)
Starred links: 1 amine or outer side, 2 acyl side, 3 side chain; linkers in the order of their positions; H or OH if unused. Positions of bridges follow the written chain, without caps; N, C: chain ends. Non-standard residues stand in square brackets, D forms with d. Residues, ends and D or L forms follow the SMILES beside them. Phg = N[C@H](C(=O)O)c1ccccc1; Suc = O=C(CCC(=O)[*:2])[*:1]; hLeu = CC(C)CC[C@H](N)C(=O)O; Nle = CCCC[C@H](N)C(=O)O; NcPrGly = O=C(O)CNC1CC1; Nva = CCC[C@H](N)C(=O)O; Dap = NC[C@H](N)C(=O)O; Sar = CNCC(=O)O

Tests used:
Format in all cases: cell-based
human V1a receptor = biological target: T1, human V1a receptor (Homo sapiens, UniProt P37288); assay: Calcium flux assay (FLIPR), agonist mode, CHO cells expressing human V1a receptor; conditions: read-out: hV1a EC50
T1 construct: expressed in transfected cells
T1 sequence (P37288 whole entry): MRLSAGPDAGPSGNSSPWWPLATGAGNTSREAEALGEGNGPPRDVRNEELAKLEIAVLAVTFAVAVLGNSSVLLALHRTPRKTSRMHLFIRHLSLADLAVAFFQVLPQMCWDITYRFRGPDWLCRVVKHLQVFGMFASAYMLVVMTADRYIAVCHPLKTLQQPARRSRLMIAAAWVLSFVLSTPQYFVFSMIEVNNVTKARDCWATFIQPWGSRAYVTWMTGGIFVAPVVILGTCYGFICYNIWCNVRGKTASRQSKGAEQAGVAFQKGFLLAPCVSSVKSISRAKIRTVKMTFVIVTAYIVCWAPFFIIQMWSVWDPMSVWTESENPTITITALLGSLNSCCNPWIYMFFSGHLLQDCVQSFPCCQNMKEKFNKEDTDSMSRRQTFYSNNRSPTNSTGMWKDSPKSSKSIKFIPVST
Text: (§1) Chines Hamster Ovary (CHO) cells were transfected with expression plasmids encoding either the human V1a, the human Oxytocin (OTR) or the human V2 receptor, the later in combination with the chimeric Gqs5 G protein to redirect the signal to Calcium flux. Stable cells were cloned by limiting dilution to yield monoclonal cell lines expressing either human V1a, human V2+Gqs5 or human OTR receptors and selected based on functional responses detected on a fluorometric imaging plate reader (FLIPR) detecting Calcium flux in the cell after receptor activation. The stable cell lines were grown in F-12 K Nutrient Mixture (Kaighns Modification), containing 10% foetal bovine serum (FBS), 1% penicillin-streptomycin, 1% L-[…], 200 ug/ml Geneticin at 37° C. in a 10% CO2 incubator at 95% humidity.
(§2) On the afternoon before the assay, cells were plated at a density of 50,000 cells/well into black 96 well plates with clear bottoms to allow cell inspection and fluorescence measurements from the bottom of each well. The density of cells was sufficient to yield a confluent monolayer the next day. Hanks balanced salt solution, without phenol red, containing 20 mM HEPES (pH 7.3) and 2.5 mM probenecid (assay buffer) was prepared fresh for each experiment. Compound dilutions were made using a Beckman Biomek 2000 laboratory automation workstation, in assay buffer containing 1% DMSO. The dye-loading buffer consisted of a final concentration of 2 μM Fluo-4-AM (dissolved in DMSO and pluronic acid) in assay buffer. The existing culture media was removed from the wells and 100 μl of the dye-loading buffer was added to each well and incubated for approximately 60 min at 37° C. in a 5% CO2 incubator at 95% humidity. Once dye-loaded, the cells were washed thoroughly on an Embla cell washer with the assay buffer to remove any unincorporated dye. Exactly 100 μl assay buffer was left in each well.
(§3) Each 96 well plate containing dye-loaded cells was placed into the FLIPR machine and the laser intensity set to a suitable level to detect low basal fluorescence. To test compounds as agonists, 25 μl diluted compound was added to the plate 10 seconds into the fluorescent measurements and fluorescent response was recorded for 5 minutes. The fluorescence data was normalized to the endogenous full agonist dose-response set at 100% for the maximum response and 0% for the minimum. Each agonist concentration-response curve was constructed using a four parameter logistic equation with Microsoft Excel XLFit as follows: Y=Minimum+((Maximum−Minimum)/(1+10^(LogEC50-X)nH)), where y is the % normalized fluorescence, minimum is the minimum y, maximum is the maximum y, logEC50 is the log10 concentration which produces 50% of the maximum induced fluorescence, x is the log10 of the concentration of the agonist compound and H is the slope of the curve (the Hill Coefficient). The maximum value gives the efficacy of the agonist test compound in percentage. The concentration of agonist that produced a half-maximal response is represented by the EC50 value, the logarithm of which yielded the pEC50 value.

human V2 receptor = biological target: T2, human V2 receptor (Homo sapiens, UniProt P30518); assay: Calcium flux assay (FLIPR), agonist mode, CHO cells expressing human V2 receptor + Gqs5; conditions: for EC50: CHO cells, human V2 + chimeric Gqs5, calcium flux FLIPR, read-out: hV2 EC50
T2 construct: expressed in transfected cells
T2 sequence (P30518 whole entry): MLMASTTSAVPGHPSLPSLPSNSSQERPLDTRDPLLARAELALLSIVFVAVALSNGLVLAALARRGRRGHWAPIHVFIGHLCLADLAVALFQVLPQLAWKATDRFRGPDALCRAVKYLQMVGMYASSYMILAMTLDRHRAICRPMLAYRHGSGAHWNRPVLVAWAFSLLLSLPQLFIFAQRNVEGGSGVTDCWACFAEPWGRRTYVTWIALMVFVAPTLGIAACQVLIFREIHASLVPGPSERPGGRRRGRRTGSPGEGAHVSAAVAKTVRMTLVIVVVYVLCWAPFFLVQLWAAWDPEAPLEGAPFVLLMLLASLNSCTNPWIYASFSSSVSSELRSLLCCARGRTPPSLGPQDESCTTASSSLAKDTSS
Text: as §1, §2, §3

[1] = biological target: T3, human Oxytocin (OTR) receptor (Homo sapiens, UniProt P30559); assay: Calcium flux assay (FLIPR), agonist mode, CHO cells expressing human oxytocin receptor; conditions: for EC50: CHO cells, human OTR, calcium flux FLIPR, read-out: hOT EC50; for Emax: CHO, read-out: hOT efficacy (%); for Emax / hOT efficacy (%): maximum response normalized to endogenous full agonist = 100%
T3 construct: expressed in transfected cells
T3 sequence (P30559 1-389): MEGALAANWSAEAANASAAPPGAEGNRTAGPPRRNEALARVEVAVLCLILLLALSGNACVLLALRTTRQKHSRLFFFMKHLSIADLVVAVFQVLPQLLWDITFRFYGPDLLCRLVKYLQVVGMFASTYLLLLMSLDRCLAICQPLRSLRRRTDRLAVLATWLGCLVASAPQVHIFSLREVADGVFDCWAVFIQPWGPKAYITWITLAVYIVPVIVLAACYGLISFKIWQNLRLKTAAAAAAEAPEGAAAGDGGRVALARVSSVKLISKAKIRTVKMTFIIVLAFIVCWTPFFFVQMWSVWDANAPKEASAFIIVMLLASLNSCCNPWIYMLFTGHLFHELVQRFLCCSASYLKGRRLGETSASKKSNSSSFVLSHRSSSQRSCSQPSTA
Text: as §1, §2, §3

[2] = maximum response normalized to endogenous full agonist = 100%

| Structure (SMILES) | EC50 (human V1a receptor) [nM] | EC50 (human V2 receptor) [nM] | Emax (human V2 receptor; CHO, maximum response normalized to endogenous full agonist = 100%, read-out: hV2 efficacy (%)) [%] | EC50 [1] [nM] | Emax [1] [%] | hV2 efficacy (%) (human V2 receptor; [2]) | hOT efficacy (%) [1] [%] |
| --- | --- | --- | --- | --- | --- | --- | --- |
| CC[C@H](C)[C@@H]1NC(=O)[C@H](Cc2ccc(O)cc2)NC(=O)CCC(=O)NC[C@@H](C(=O)N(C)CC(=O)N[C@@H](C(=O)NCC(N)=O)[C@H](C)O)NC(=O)[C@H](CC(N)=O)NC(=O)[C@H](CCC(N)=O)NC1=O [Example 29] (YIQN[Dap][Sar][dT]G-NH2; linker N-5 via Suc) | > 27000 | 2070 | 113 | 0.6 | 109 | – | – |
| CCC[C@H](NC(=O)CN(C)C(=O)[C@@H]1CNC(=O)CCC(=O)N[C@@H](Cc2ccc(O)cc2)C(=O)N[C@@H]([C@@H](C)CC)C(=O)N[C@@H](CCC(N)=O)C(=O)N[C@@H](CC(N)=O)C(=O)N1)C(=O)NCC(N)=O [Example 27] (YIQN[Dap][Sar][Nva]G-NH2; linker N-5 via Suc) | > 27000 | 282 | – | 0.8 | 107 | 114 | – |
| CC[C@H](C)[C@@H]1NC(=O)[C@H](Cc2ccc(O)cc2)NC(=O)CCC(=O)NC[C@@H](C(=O)N(CC(=O)N[C@@H](CC(C)C)C(=O)NCC(N)=O)C2CC2)NC(=O)[C@H](CC(N)=O)NC(=O)[C@H](CCC(N)=O)NC1=O [Example 38] (YIQN[Dap][NcPrGly]LG-NH2; linker N-5 via Suc) | > 27000 | 626 | – | 0.38 | 126 | 146 | – |
| CCCC[C@H](NC(=O)CN(C)C(=O)[C@@H]1CNC(=O)CCC(=O)N[C@@H](Cc2ccc(O)cc2)C(=O)N[C@@H]([C@@H](C)CC)C(=O)N[C@@H](CCC(N)=O)C(=O)N[C@@H](CC(N)=O)C(=O)N1)C(=O)NCC(N)=O [Example 6] (YIQN[Dap][Sar][Nle]G-NH2; linker N-5 via Suc) | > 27000 | 364 | – | 1 | – | 104 | 119 |
| CC[C@H](C)[C@@H]1NC(=O)[C@H](Cc2ccc(O)cc2)NC(=O)CCC(=O)NC[C@@H](C(=O)N2CCC[C@H]2C(=O)N[C@H](C(=O)NCC(N)=O)c2ccccc2)NC(=O)[C@H](CC(N)=O)NC(=O)[C@H](CCC(N)=O)NC1=O [Example 19] (YIQN[Dap]P[Phg]G-NH2; linker N-5 via Suc) | 470 | 59 | – | 0.4 | 114 | 114 | – |
| CC[C@H](C)[C@@H]1NC(=O)[C@H](Cc2ccc(O)cc2)NC(=O)CCC(=O)NC[C@@H](C(=O)N(C)CC(=O)N[C@@H](CCC(C)C)C(=O)NCC(N)=O)NC(=O)[C@H](CC(N)=O)NC(=O)[C@H](CCC(N)=O)NC1=O [Example 25] (YIQN[Dap][Sar][hLeu]G-NH2; linker N-5 via Suc) | > 27000 | 213 | – | 0.8 | 103 | 118 | – |
| CC[C@H](C)[C@@H]1NC(=O)[C@H](Cc2ccc(O)cc2)NC(=O)CCC(=O)NC[C@@H](C(=O)N(C)CC(=O)N[C@H](C(=O)NCC(N)=O)c2ccccc2)NC(=O)[C@H](CC(N)=O)NC(=O)[C@H](CCC(N)=O)NC1=O [Example 37] (YIQN[Dap][Sar][Phg]G-NH2; linker N-5 via Suc) | > 27000 | 53 | – | 0.2 | 112 | 121 | – |
| CC[C@H](C)[C@@H]1NC(=O)[C@H](Cc2ccc(O)cc2)NC(=O)CCC(=O)NC[C@@H](C(=O)N2CCC[C@H]2C(=O)N[C@@H](CCC(C)C)C(=O)NCC(N)=O)NC(=O)[C@H](CC(N)=O)NC(=O)[C@H](CCC(N)=O)NC1=O [Example 22] (YIQN[Dap]P[hLeu]G-NH2; linker N-5 via Suc) | 391 | 176 | – | 0.8 | 109 | 106 | – |
| CC[C@H](C)[C@@H]1NC(=O)[C@H](Cc2ccc(O)cc2)NC(=O)CCC(=O)NC[C@@H](C(=O)N2CCC[C@H]2C(=O)N[C@@H](CC(C)C)C(=O)NCC(N)=O)NC(=O)[C@H](CC(N)=O)NC(=O)[C@H](CCC(N)=O)NC1=O [Example 1] (YIQN[Dap]PLG-NH2; linker N-5 via Suc (inferred); C-terminus assumed) | 5120 | 216 | – | 1 | – | 130 | 105 |
